Patent publication US5006342A, “Resilient transdermal drug delivery device” (Cygnus Corporation, priority 1989, dated 1991)

What was measured:
[1] = E2 in vitro steady-state skin flux across human cadaver skin (diffusion cells, 32° C.); type: in vitro ADME
[2] = wearing study, E2 plasma levels in postmenopausal female subjects; type: in vivo, postmenopausal female subjects (human); conditions: postmenopausal females
[3] = in vitro release of E2 (reciprocating dissolution apparatus, USP Test Dissolution Method V, 32° C.); conditions: Example 1, 7-layer system, over 7 days
Experimental: The in vitro release of E2 from the 7-layer system was determined, using a reciprocating dissolution apparatus (USP Test Dissolution Method V) at 32° C., to be square-root-time-dependent over 7 days with a total cumulative release of 190 μg/cm^2 in 7 days (the flux was 14.66 μg/cm^2 /hr^1/2). The laminated composite was translucent and resilient, allowing the system to stretch with the stretching of skin when worn.

## C[C@]12CC[C@@H]3c4ccc(O)cc4CC[C@H]3[C@@H]1CC[C@@H]2O [Example E2, estradiol]
[1]; Example 2, 7-layer, 14% PGML in L1
  In vitro skin flux: -0.15 μg/cm^2 /hr
[1]; Example 3, 7-layer, Medifilm 810, E2 2.0% in L1 and 5.5% in L2
  In vitro skin flux: approximately 0.14 μg/cm^2 /hr
[1]; Example 4, 5-layer laminate (prepared similarly to Example 1)
  E2 skin flux: -0.12 μg/cm^2 /hr
[1]; Example 5, 5-layer laminate (prepared similarly to Example 2)
  E2 skin flux: ~ 0.15 μg/cm^2 /hr
[1]; Examples 6 and 7, 5-layer device, Medifilm 810
  flux from the 5-layer device: -0.14 μg/cm^2 /hr
[1]; Examples 8 and 9, 5-layer device, Medifilm 910
  flux from the 5-layer device: -0.11 μg/cm^2 /hr
[2]; Example 3, 30 cm^2 laminate, four day wearing, 5760 min
  constant plasma levels: ~32 pg/mL
[2]; Example 5, 30 cm^2 laminate, 7 day wearing
  constant plasma concentration of E2: ~45 pg/mL
[2]; human, plasma, topical or ocular, Example 3, 20 cm^2 laminate, four day wearing, read-out: constant plasma levels
  concentration at 96 h: ~0.025 ng/mL
[2]; human, plasma, topical or ocular, Example 5, 20 cm^2 laminate, 7 day wearing, read-out: constant plasma concentration of E2
  concentration at 168 h: ~0.03 ng/mL
[3]
  in vitro release flux of E2 (square-root-time): 14.66 μg/cm^2 /hr^1/2
  time dependence of in vitro release of E2: square-root-time-dependent
